Data published in patent US9796777B2, “Methods of treating malignant tumors” (Canimguide Therapeutics AB, priority 2007, dated 2017).

Columns and labels:
[1] = molecular target: T1, β2-integrin LFA-1 (CD11a) (Homo sapiens, UniProt P20701); experiment: Immunocytochemical staining of PBMC and THP-1 with anti-integrin (CD11a) antibody with or without albumin peptides; assay type: binding; settings: mononuclear blood cells
T1 construct: endogenous in cells; host or cells: human PBMC (healthy controls, cancer patients) and THP-1 monocytic cell line (ATCC)
T1 sequence (P20701 26-1170): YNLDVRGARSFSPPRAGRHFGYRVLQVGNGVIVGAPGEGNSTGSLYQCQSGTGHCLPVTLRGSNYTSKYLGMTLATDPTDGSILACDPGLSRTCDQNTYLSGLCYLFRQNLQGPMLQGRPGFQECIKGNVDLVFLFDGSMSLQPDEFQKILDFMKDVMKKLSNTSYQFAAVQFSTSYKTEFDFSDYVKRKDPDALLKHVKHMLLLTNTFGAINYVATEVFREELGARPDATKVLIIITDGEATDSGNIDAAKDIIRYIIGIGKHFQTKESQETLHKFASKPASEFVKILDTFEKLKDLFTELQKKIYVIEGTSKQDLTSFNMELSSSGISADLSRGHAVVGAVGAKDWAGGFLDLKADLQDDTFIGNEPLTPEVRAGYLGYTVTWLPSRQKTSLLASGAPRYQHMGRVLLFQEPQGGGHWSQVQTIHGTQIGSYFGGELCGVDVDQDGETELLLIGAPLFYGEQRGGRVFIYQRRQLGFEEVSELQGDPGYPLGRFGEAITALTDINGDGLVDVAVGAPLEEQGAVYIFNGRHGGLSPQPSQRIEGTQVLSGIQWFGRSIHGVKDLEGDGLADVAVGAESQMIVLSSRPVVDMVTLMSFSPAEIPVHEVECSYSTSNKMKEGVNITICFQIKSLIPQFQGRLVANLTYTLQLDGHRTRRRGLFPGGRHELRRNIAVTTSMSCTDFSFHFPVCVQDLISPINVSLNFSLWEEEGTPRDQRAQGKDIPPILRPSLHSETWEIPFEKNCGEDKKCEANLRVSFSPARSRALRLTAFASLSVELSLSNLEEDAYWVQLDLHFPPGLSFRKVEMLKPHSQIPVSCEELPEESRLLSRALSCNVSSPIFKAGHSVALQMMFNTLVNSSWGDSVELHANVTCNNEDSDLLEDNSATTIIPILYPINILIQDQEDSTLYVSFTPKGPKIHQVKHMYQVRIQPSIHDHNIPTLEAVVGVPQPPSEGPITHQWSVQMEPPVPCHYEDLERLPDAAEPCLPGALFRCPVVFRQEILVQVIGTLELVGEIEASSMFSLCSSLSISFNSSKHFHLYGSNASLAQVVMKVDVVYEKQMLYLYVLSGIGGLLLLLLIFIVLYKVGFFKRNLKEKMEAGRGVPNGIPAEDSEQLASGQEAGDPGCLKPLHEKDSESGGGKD
T1 sequence (P05107 23-769 partner): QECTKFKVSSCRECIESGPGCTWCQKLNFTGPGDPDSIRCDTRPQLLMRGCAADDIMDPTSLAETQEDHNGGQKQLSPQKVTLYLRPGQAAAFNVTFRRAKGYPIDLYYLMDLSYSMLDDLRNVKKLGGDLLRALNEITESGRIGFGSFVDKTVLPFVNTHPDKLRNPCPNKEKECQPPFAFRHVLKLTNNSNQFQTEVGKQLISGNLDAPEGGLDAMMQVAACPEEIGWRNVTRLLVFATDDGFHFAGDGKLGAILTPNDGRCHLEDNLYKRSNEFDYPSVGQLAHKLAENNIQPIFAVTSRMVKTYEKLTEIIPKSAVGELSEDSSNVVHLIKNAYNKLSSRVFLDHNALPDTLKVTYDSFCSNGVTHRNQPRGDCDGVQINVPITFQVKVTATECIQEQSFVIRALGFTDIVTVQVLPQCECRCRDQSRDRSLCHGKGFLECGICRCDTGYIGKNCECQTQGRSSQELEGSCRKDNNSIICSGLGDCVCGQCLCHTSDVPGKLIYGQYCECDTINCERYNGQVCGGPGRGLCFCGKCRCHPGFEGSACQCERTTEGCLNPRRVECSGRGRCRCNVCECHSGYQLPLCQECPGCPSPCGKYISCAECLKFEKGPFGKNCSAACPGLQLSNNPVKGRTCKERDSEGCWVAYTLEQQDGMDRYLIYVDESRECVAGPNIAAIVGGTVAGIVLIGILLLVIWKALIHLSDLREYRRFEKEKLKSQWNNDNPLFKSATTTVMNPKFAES
Procedure: Cytospin preparations of mononuclear blood cells from healthy controls, cancer patients and a monocytic cell line, THP-1, were prepared (as described under materials and methods), dried and stored at −70° C. In the immunocytological staining, unspecific staining was blocked by incubation with 10% human AB serum. Some of the slides were preincubated for 60 minutes with albumin peptides at a concentration of 40 μg/ml, added to this 10% AB serum, as indicated in the FIG. 8 A-F. The staining procedure was then continued as described in material and methods. The staining intensity of slides stained with and without preincubation with the peptides was recorded semi quantitatively using a standard light microscope.
PBMC were separated as described above. Cultured THP-1 cells (obtained from the American Type Culture Collection through LGL Nordic AB, Sweden) were carefully washed and suspended in RPMI1640. PBMC and THP-1 were immediately spun down on pre-cleaned microscope slides in a Shandon Cytospin (Shandon Scientific Ltd, UK) at 1000 RPM for 7 min at 2.5 or 5×10^4 cells per slide. The slides were left to dry at room temperature over night, after which they were wrapped in parafilm and stored at −70° C. Immediately before use, the cytospins were thawed and fixed with acetone for 5 min at room temperature. The cytospins were first blocked with 10% normal human AB-serum with and without albumin peptides (40 ␣g/ml) for 1 h before staining. Primary antibody, consisting of a monoclonal mouse anti-human CD11a (clone HI111, BD Biosciences) diluted in Tris buffered saline (TBS, pH 7.6) at 5 μg/ml (THP-1) or 1 µg/ml (PBMC), was added. The slides were incubated for 30 min and then washed in TBS followed by Envision-Alkaline Phosphatase (Dako Norden A/S, Denmark) for 30 min. After additional washing in TBS, the slides were incubated in alkaline phoshatase substrate consisting of Fast Red TR salt (Sigma), naphtol AS-MX (Sigma) and 5 mM levamisol (Sigma) to block endogenous alkaline phosphatase activity, for 20 min followed by washing in TBS. They were then counterstained in Mayer's haematoxylin for 1 minute and mounted in Glycergel (Dako Norden NS). Monoclonal mouse IgG1 against an irrelevant antigen (Aspergillus niger glukosoxidase, Dako Norden NS) was used as a negative control. All incubations were performed at room temperature in a moist chamber.
FIG. 24. Inhibition of the binding of anti-LFA-1, mab HI111, to mononuclear blood cells by 3028 peptide and fragments 3325 and 3218. A standard immunohistochemical staining procedure using acetone fixation, 10% human AB-serum for blocking, incubation with HI 111 and a secondary antibody (Ultravision, an alkaline phosphate conjugated polymer attached to Fab-fragments of goat anti-mouse Ig), followed by development with Fast Red. The slides were then mounted in Glycergel. Preincubation with peptides added to the AB serum was as follows: A. No peptide added, B. peptide 3028, C. The C-terminal part (3218), and D. The N-terminal part (3325).

[2] = system: cell surface receptors of immune cells (ACS); experiment: Adsorption of enzyme fragmented dHSA on affinity column with biotinylated cell surface proteins (ACS), MALDI-TOF ms; assay type: binding, human
PBMC = experiment: IL-2 induced proliferation of PBMC in the presence of affinity purified rabbit anti-3028; assay type: cell-based, human; settings: small amount of peptide 3028 having no inhibitory activity per se
Procedure: Serum containing culture medium (100 ul/well) was pre-incubated with 20 ug/ml of rabbit antibodies for 30 min at room temperature before the addition of 100 ul PBMC suspension to the culture wells.

VFDEFKPLVEEPQNLIK [peptide 3028] was tested. Which “effect on binding of the LFA-1 antibody (HI 111) to LFA-1” value [1] did it give?
The value was “Both inhibition (FIG. 24) and enhancement of the binding”.

And the Per cent adsorbed ([2]; Table 5 A, peptides generated by trypsin degradation of dHSA)?
Its Per cent adsorbed is 0.60 Per cent.

And the “Per cent adsorbed” value ([2]; Table 5 B, trypsin peptides selected for synthesis)?
The value was 0.60 Per cent.

And the “effect on the stimulatory effect of anti-3028 antibodies” value (PBMC)?
Its value is “neutralized”.
